According to patent publication US20170121322A1, “BET-PROTEIN INHIBITING 3,4-DIHYDROPYRIDO[2,3-B]PYRAZINONES WITH META-SUBSTITUTED AROMATIC AMINO- OR ETHER GROUPS” (Bayer Pharma Aktiengesellschaft, priority 2014, published 2017):

Legend:
[1] = biological target: T1, BRD4 bromo domain 2 [BRD4(2)] (Homo sapiens, UniProt O60885); assay: BRD4(2)/acetylated peptide H4 TR-FRET binding assay; details: His6-BRD4(2) (aa 357-445) vs acetylated histone H4 peptide
T1 construct: N-terminally His6-tagged BRD4(2) (amino acids 357-445); made in house; host or cells: E. coli
From the text: To assess the BRD4(2) binding strength of the substances described in this application, the ability thereof to inhibit the interaction between BRD4(2) and acetylated histone H4 in a dose-dependent manner was quantified.
(§1) For this purpose, a time-resolved fluorescence resonance energy transfer (TR-FRET) assay was used, which measures the binding between N-terminally His6-tagged BRD4(2) (amino acids 357-445) and a synthetic acetylated histone H4 (Ac-H4) peptide with sequence SGRGK(Ac)GGK(Ac)GLGK(Ac)GGAK(Ac)RHRKVLRDNGSGSK-biotin. The recombinant BRD4(2) protein produced in-house according to Filippakopoulos et al., Cell, 2012, 149:214-231 was expressed in E. coli and purified by means of (Ni-NTA) affinity and (Sephadex G-75) size exclusion chromatography. The Ac-H4 peptide can be purchased, for example, from Biosyntan (Berlin, Germany).
(§2) In the assay, typically 11 different concentrations of each substance (0.1 nM, 0.33 nM, 1.1 nM, 3.8 nM, 13 nM, 44 nM, 0.15 μM, 0.51 μM, 1.7 μM, 5.9 μM and 20 μM) were analysed as duplicates on the same microtitre plate. For this purpose, 100-fold concentrated solutions in DMSO were prepared by serial dilutions (1:3.4) of a 2 mM stock solution into a clear, 384-well microtitre plate (Greiner Bio-One, Frickenhausen, Germany). From this, 50 nl were transferred into a black test plate (Greiner Bio-One, Frickenhausen, Germany). The test was started by the addition of 2 μl of a 2.5-fold concentrated BRD4(2) solution (final concentration typically 100 nM in the 5 μl of reaction volume) in aqueous assay buffer [50 mM HEPES pH 7.5, 50 mM sodium chloride (NaCl); 50 mM potassium fluoride (KF); 0.25 mM CHAPS and 0.05% serum albumin (BSA)] to the substances in the test plate. This was followed by a 10-minute incubation step at 22° C. for the pre-equilibration of putative complexes between BRD4(2) and the substances.
(§3) The mixture was then incubated in the dark at 22° C. for one hour and then at 4° C. for at least 3 hours and for no longer than overnight. The formation of BRD4(2)/Ac-H4 complexes was determined by the measurement of the resonance energy transfer from the streptavidin-Eu chelate to the anti-6His-XL665 antibody present in the reaction. For this purpose, the fluorescence emission was measured at 620 nm and 665 nm after excitation at 330-350 nm in a TR-FRET measuring instrument, for example a Rubystar or Pherastar (both from BMG Lab Technologies, Offenburg, Germany) or a Viewlux (Perkin-Elmer). The ratio of the emissions at 665 nm and at 622 nm was taken as an indicator of the amount of BRD4(2)/Ac-H4 complexes formed.
(§4) The data (ratios) obtained were normalized, with 0% inhibition corresponding to the mean from the measurements for a set of controls (typically 32 data points) in which all the reagents were present. In these, in place of test substances, 50 nl of DMSO (100%) were used. Inhibition of 100% corresponded to the mean from the measurements for a set of controls (typically 32 data points) in which all the reagents except BRD4(2) were present. The IC50 was determined by regression analysis based on a 4-parameter equation (minimum, maximum, IC50, Hill; Y=Max+(Min−Max)/(1+(X/IC50)Hill)).

[2] = tested on: MOLM-13 cells; assay: Cell proliferation assay MOLM-13, method 2 (CellTiterGlo); assay type: cell-based; details: Homo sapiens, MOLM-13, 72 h; acute myeloid leukaemia cells, 500 cells/well, 1536-well, 3-day incubation, CellTiterGlo ATP readout
Experimental: Alternatively, the MOLM-13 cells (DSMZ, ACC 554) were seeded at a concentration of 500 cells/well in 5 μl of growth medium (RPMI1640, 10% FCS) on 1536-well microtitre plates (method 2).
In method 2, after 3-day incubation with the inhibitor, the ATP concentration was determined as readout for the cell number using the CellTiterGlo kit (Promega). The measurement was carried out using a luminometer.
The substances were tested in the cell lines in Table 2, which represent the indications specified by way of example: […]

[3] = biological target: T2, BRD4 bromo domain 1 [BRD4(1)] (Homo sapiens, UniProt O60885); assay: BRD4(1)/acetylated peptide H4 TR-FRET binding assay; details: His6-BRD4(1) (aa 67-152) vs acetylated histone H4 peptide
T2 construct: N-terminally His6-tagged BRD4(1) (amino acids 67-152); made in house; host or cells: E. coli
From the text: To assess the BRD4(1) binding strength of the substances described in this application, the ability thereof to inhibit the interaction between BRD4(1) and acetylated histone H4 in a dose-dependent manner was quantified.
as §1, with “BRD4(1)” for “BRD4(2)”, “67-152)” for “357-445)”, “GRGK(Ac)GGK(Ac)GLGK(Ac)GGAK(Ac)RHGSGSK-biotin.” for “SGRGK(Ac)GGK(Ac)GLGK(Ac)GGAK(Ac)RHRKVLRDNGSGSK-biotin.”
as §2, with “concentrated BRD4(1)” for “concentrated BRD4(2)”, “typically 10” for “typically 100”, “chloride (NaCl),” for “chloride (NaCl); 50 mM potassium fluoride (KF);”, “between BRD4(1)” for “between BRD4(2)”, “substances. Subsequently, 3 μl of a solution of 1.67 times the concentration (in assay buffer) consisting of Ac-H4 peptide (83.5 nM) and TR-FRET detection reagents [16.7 nM anti-6His-XL665 and 3.34 nM streptavidin cryptate (both from Cisbio Bioassays, Codolet, France), and 668 mM potassium fluoride (KF)] were added.” for “substances.”
as §3, with “BRD4(1)/Ac-H4” for “BRD4(2)/Ac-H4”, “cryptate” for “chelate”
as §4, with “BRD4(1)” for “BRD4(2)”, “Y=Max+(Min−Max)/(1+(X/IC50)Hill).” for “Y=Max+(Min−Max)/(1+(X/IC50)Hill)).”

Row | SMILES | IC50 [1] | IC50 [2] | IC50 [3]
1 | CC(C)S(=O)(=O)c1cccc(Nc2ccc3c(n2)N(C2CCN(CCC(F)(F)F)CC2)[C@H](C)C(=O)N3C)c1 [Example 30, (3R)-6-{[3-(Isopropylsulphonyl)phenyl]amino}-1,3-dimethyl-4-[1-(3,3,3-trifluoropropyl)piperidin-4-yl]-3,4-dihydropyrido[2,3-b]pyrazin-2(1H)-one] | 114 nM | 73 nM | 20 nM
2 | CCS(=O)(=O)c1ccc(Oc2ccc(F)cc2)c(Nc2ccc3c(n2)N(C2CCOCC2)[C@H](C)C(=O)N3C)c1 [Example 37, (3R)-6-{[5-(Ethylsulphonyl)-2-(4-fluorophenoxy)phenyl]amino}-1,3-dimethyl-4-(tetrahydro-2H-pyran-4-yl)-3,4-dihydropyrido[2,3-b]pyrazin-2(1H)-one] | 39 nM | 124 nM | 35 nM
3 | CCS(=O)(=O)c1ccc(Oc2ccccc2)c(Nc2ccc3c(n2)N(C2CCOCC2)[C@H](C)C(=O)N3C)c1 [Example 36, (3R)-6-{[5-(Ethylsulphonyl)-2-phenoxyphenyl]amino}-1,3-dimethyl-4-(tetrahydro-2H-pyran-4-yl)-3,4-dihydropyrido[2,3-b]pyrazin-2(1H)-one] | 49 nM | 160 nM | 34 nM
4 | C[C@@H]1C(=O)N(C)c2ccc(Nc3cccc(N4CCN(C)CC4)c3)nc2N1C1CCOCC1 [Example 41, (3R)-1,3-Dimethyl-6-{[3-(4-methylpiperazin-1-yl)phenyl]amino}-4-(tetrahydro-2H-pyran-4-yl)-3,4-dihydropyrido[2,3-b]pyrazin-2(1H)-one] | 630 nM | 708 nM | 133 nM
5 | COc1ccc(S(=O)(=O)C(C)C)cc1Nc1ccc2c(n1)N(C1CCN(C(=O)OC(C)(C)C)CC1)[C@H](C)C(=O)N2C [Example 24, tert-Butyl 4-[(3R)-6-{[5-(isopropylsulphonyl)-2-methoxyphenyl]amino}-1,3-dimethyl-2-oxo-2,3-dihydropyrido[2,3-b]pyrazin-4(1H)-yl]piperidine-1-carboxylate] | 78 nM | 147 nM | 86 nM
6 | CCS(=O)(=O)c1ccc(Oc2ccccc2)c(Nc2ccc3c(n2)N(C2CCN(C)CC2)[C@H](C)C(=O)N3C)c1 [Example 33, (3R)-6-{[5-(Ethylsulphonyl)-2-phenoxyphenyl]amino}-1,3-dimethyl-4-(1-methylpiperidin-4-yl)-3,4-dihydropyrido[2,3-b]pyrazin-2(1H)-one] | 51 nM | 26 nM | 15 nM

The remaining compounds from weak to strong by IC50 [1], led by results:

Row | IC50 [1] | IC50 [2] | IC50 [3] | SMILES
7 | 7340 nM | > 10000 nM | 3640 nM | C[C@@H]1C(=O)N(C)c2ccc(Nc3cccc(S(C)(=N)=O)c3)nc2N1C1CCOCC1 (stereo partly drawn) [Example 44, (3R)-1,3-Dimethyl-6-{[3-(S-methylsulphonimidoyl)phenyl]amino}-4-(tetrahydro-2H-pyran-4-yl)-3,4-dihydropyrido[2,3-b]pyrazin-2(1H)-one]
8 | 294 nM | 1650 nM | 1100 nM | C[C@@H]1C(=O)N(C)c2ccc(Nc3cccc(-c4ccc(C#N)cc4)c3)nc2N1C1CCOCC1 [Example 18, 3′-{[(3R)-1,3-Dimethyl-2-oxo-4-(tetrahydro-2H-pyran-4-yl)-1,2,3,4-tetrahydropyrido[2,3-b]pyrazin-6-yl]amino}biphenyl-4-carbonitrile]
9 | 135 nM | 576 nM | 156 nM | COc1ccc(S(C)(=O)=O)cc1Nc1ccc2c(n1)N(C1CCN(C(=O)OC(C)(C)C)CC1)[C@H](C)C(=O)N2C [Example 25, tert-Butyl 4-[(3R)-6-{[2-methoxy-5-(methylsulphonyl)phenyl]amino}-1,3-dimethyl-2-oxo-2,3-dihydropyrido[2,3-b]pyrazin-4(1H)-yl]piperidine-1-carboxylate]
10 | 64 nM | 51 nM | 27 nM | C=CCS(=O)(=O)c1ccc(OC)c(Nc2ccc3c(n2)N(C2CCN(C)CC2)[C@H](C)C(=O)N3C)c1 [Example 23, (3R)-6-{[5-(Allylsulphonyl)-2-methoxyphenyl]amino}-1,3-dimethyl-4-(1-methylpiperidin-4-yl)-3,4-dihydropyrido[2,3-b]pyrazin-2(1H)-one]
11 | 29 nM | 40 nM | 945 nM | CCS(=O)(=O)c1ccc(Oc2ccc(F)cc2)c(Nc2ccc3c(n2)N(C2CCN(C)CC2)[C@H](C)C(=O)N3C)c1 [Example 32, (3R)-6-{[5-(Ethylsulphonyl)-2-(4-fluorophenoxy)phenyl]amino}-1,3-dimethyl-4-(1-methylpiperidin-4-yl)-3,4-dihydropyrido[2,3-b]pyrazin-2(1H)-one]
